The record followed here is patent publication US9573966B2, “Anti-cancer activity of novel bicyclic heterocycles” (Katholieke Universiteit Leuven, K.U.Leuven R&D, priority 2010, dated 2017).

One data set has as its system HSB-2 cells. Kind of data set: Inhibition of HSB-2 leukemic cell line proliferation (WST-1). The format is cell-based, human. The following applies: cytotoxicity on HSB-2 cells, two days incubation, WST-1 read-out. The procedure, abridged:
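HSB-2 human ALL cells, 50000/well in RPMI-1640 + 10% FCS, exposed to compounds 2 days at 37 °C, then WST-1 2 h, OD 450 nm. Proliferation scaled between untreated (max) and Triton X100 (min) controls; IC50 from ≥4-point curves, each point mean of ≥2 experiments.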
In general terms: Formazan colour is commonly taken as a measure of viable cells.

The subject of the next data set is HL-60 cells. Description: Inhibition of HL-60 leukemic cell line proliferation (WST-1). The format is cell-based, human. The following applies: cytotoxicity on HL-60 cells, two days incubation, WST-1 read-out. Here is the method:
HL-60 cell line, a human promyelocytic leukemia (ATCC; CCL-240) cell line, was grown in RPMI-1640 medium (Lonza, Belgium) supplemented with 10% fetal calf serum (Hyclone, US) and antibiotics. Exponential growing phase cells were seed in flat bottom 96-well microplates (TTP, Switzerland) at 50000 cells per well in 220 μl of medium with compounds (in different concentrations) and incubated for two days at 37° C., 5% CO2. After incubation, 100 μl of supernatant were removed and 10 μl of WST-1 (Roche, Switzerland) were added. After 2 hour incubation at 37° C., 5% CO2, optical densities were measured at 450 nm. Proliferation is calculated with respect of control points (no compound and treatment with Triton X100 to have maximum and minimum proliferation data). The IC50 was determined from a graph with at least four points, each derived from the mean of at least 2 experiments. […] The results are shown in Table 2 for a number of compounds.

In a further data set the test system is LNCaP cells. Kind of data set: Inhibition of LNCaP prostate carcinoma cell line proliferation (WST-1). The data set is classed as cell-based. The following applies: Homo sapiens, 48 h; cytotoxicity on LNCaP cells, two days incubation, WST-1 read-out. As to the method:
LNCaP cell line, a prostate carcinoma cell line, was grown in RPMI-1640 medium (Lonza, Belgium) supplemented with 10% fetal calf serum (Hyclone, US) and antibiotics. Exponential growing phase cells were seed in flat bottom 96-well microplates (TTP, Switzerland) at 10000 cells per well in 200 μl of medium. The day after, 20 μl of compounds (in different concentrations) were added and incubated for two days at 37° C., 5% CO2. After incubation, 100 μl of supernatant were removed and 10 μl of WST-1 (Roche, Switzerland) were added. After 2 hour incubation at 37° C., 5% CO2, optical densities were measured at 450 nm. Proliferation is calculated with respect of control points (no compound and treatment with Triton X100 to have maximum and minimum proliferation data). The IC50 was determined from a graph with at least four points, each derived from the mean of at least 2 experiments. […] The results are shown in Table 3 for a number of compounds.

A further data set concerns hu EOL-1 leukemia. The note with it: Example 222 p.o. once daily, cyclophosphamide once i.p. As to the method: The test compound (Example 222) was dissolved in DMSO (5% final concentration) and further solubilised in 0.5% Tween 80 in 1% methylcellulose. The resulting suspension was warmed for 10 minutes to 37° C. in an ultrasound water bath to obtain a homogeneous formulation for oral administration. At day 0, 24 male NSG mice received a s.c. inoculum of 10^7 EOL-1 cells taken from in vitro culture and mixed with 50% matrigel. At day 10 tumours were palpable, mice were randomized into three treatment groups and therapy initiated. The test compound (Example 222) and the vehicle were administered orally (p.o.) once daily until the end of the experiment. Cyclophosphamide was administered only once intraperitoneally (i.p.).

The pIC50 is the IC50 on a negative log10 scale, so that one unit is a factor of ten.

pIC50: −log10 of the molar value. A value given as a limit tells only on which side of the number the result lay.

With `COc1ccc(OCC(=O)N2CCN(c3nc(N)nc4sc(-c5cccnc5)nc34)CC2)cc1` [Example 271, 1-(4-(5-amino-2-(pyridin-3-yl)thiazolo[5,4-d]pyrimidin-7-yl)piperazin-1-yl)-2-(4-methoxyphenoxy)ethanone], the pIC50 was 7.22 in the data set on HSB-2 cells (Homo sapiens, HSB2, 48 h); 7.00 with HL-60 cells (Homo sapiens, 48 h); less than 4.00 with LNCaP cells.
As for `Nc1nc(N2CCN(C(=O)COc3ccc(Cl)cc3)CC2)c2nc(-c3cccnc3)sc2n1` [Example 121a, 5-amino-7-[4-(4-chlorophenoxyacetyl)piperazin-1-yl]-2-(pyridine-3-yl)thiazolo[5,4-d]pyrimidine], the pIC50 with HSB-2 cells (Homo sapiens, HSB2, 48 h) is 6.70; in the data set with HL-60 cells (Homo sapiens, 48 h), 6.64; in the data set on LNCaP cells it was 4.32.
Regarding `O=P1(N(CCCl)CCCl)NCCCO1` (stereo not drawn) [Cyclophosphamide, reference compound], in the data set on hu EOL-1 leukemia (EOL-1 xenograft in NSG mice), the body weight loss came to 6% and the tolerability entry is reported as “well tolerated”. The “effect on tumour growth (tumour volume) relative to vehicle” value with hu EOL-1 leukemia (s.c. EOL-1 tumours in NSG mice, therapy from day 10 to day 21) is reported as “highly significant (p<0.05) inhibition of tumour growth”.
For `Nc1nc(N2CCN(C(=O)COc3ccc(Cl)cc3)CC2)c2nc(-c3ccc(C(F)(F)F)cc3)[nH]c2n1` [Example 394, 1-(4-(2-amino-8-(4-(trifluoromethyl)phenyl)-9H-purin-6-yl)piperazin-1-yl)-2-(4-chlorophenoxy)ethanone], the pIC50 in the data set with HSB-2 cells (Homo sapiens, HSB2, 48 h) was 5.13; in the data set on HL-60 cells (Homo sapiens, 48 h), 5.06.
As to `Cc1cccc(OCC(=O)N2CCN(c3nc(N)nc4sc(-c5ccco5)nc34)CC2)c1` [Example 210, 1-(4-(5-amino-2-(furan-2-yl)thiazolo[5,4-d]pyrimidin-7-yl)piperazin-1-yl)-2-(m-tolyloxy)ethanone], the pIC50 was 6.32 in the data set with HSB-2 cells (Homo sapiens, HSB2, 48 h) and 6.41 in the data set on HL-60 cells (Homo sapiens, 48 h).
Regarding `Nc1nc(N2CCN(C(=O)COc3ccc(Cl)cc3)CC2)c2nc(CCc3ccc(F)cc3)oc2n1` [Example 172, 1-(4-(5-amino-2-(4-fluorophenethyl)oxazolo[5,4-d]pyrimidin-7-yl)piperazin-1-yl)-2-(4-chlorophenoxy)ethanone], the pIC50 is less than 5.00 in the data set with HSB-2 cells (Homo sapiens, HSB2, 48 h) and less than 5.00 with HL-60 cells (Homo sapiens, 48 h).
`Nc1nc(N2CCN(C(=O)COc3ccc(Cl)cc3)CC2)c2nc(-c3ccccn3)sc2n1` [Example 282, 1-(4-(5-amino-2-(pyridin-2-yl)thiazolo[5,4-d]pyrimidin-7-yl)piperazin-1-yl)-2-(4-chlorophenoxy)ethanone]: the pIC50 was 6.25 in the data set on HSB-2 cells (Homo sapiens, HSB2, 48 h) and 6.04 in the data set with HL-60 cells (Homo sapiens, 48 h).
With `Nc1nc(N2CCN(C(=O)COc3ccc(Cl)cc3)CC2)c2cc(-c3ccc(F)cc3)sc2n1` [Example 326, 1-(4-(2-amino-6-(4-fluorophenyl)thieno[2,3-d]pyrimidin-4-yl)piperazin-1-yl)-2-(4-chlorophenoxy)ethanone], the pIC50 was 5.05 with HSB-2 cells (Homo sapiens, HSB2, 48 h) and less than 5.00 with HL-60 cells (Homo sapiens, 48 h).
In the same order, the values of `N#Cc1ccc(NC(=O)N2CCN(c3nc(N)nc4sc(Cc5ccc(F)cc5)nc34)CC2)cc1` [Example 232, 4-(5-amino-2-(4-fluorobenzyl)thiazolo[5,4-d]pyrimidin-7-yl)-N-(4-cyanophenyl)piperazine-1-carboxamide] are 5.16 and 5.00.
In the case of `Nc1nc(N2CCN(C(=O)COc3ccc(Cl)cc3)CC2)c2nc(-c3ccc(Cl)cc3)[nH]c2n1` [Example 392, 1-(4-(2-amino-8-(4-chlorophenyl)-9H-purin-6-yl)piperazin-1-yl)-2-(4-chlorophenoxy)ethanone], the pIC50 with HSB-2 cells (Homo sapiens, HSB2, 48 h) was 5.65; in the data set on HL-60 cells (Homo sapiens, 48 h), 5.50.
As to `Nc1nc(N2CCN(C(=O)COc3ccc(Br)cc3)CC2)c2nc(-c3ccc(F)cc3)sc2n1` [Example 128, 5-amino-2-(4-fluorophenyl)-7-(4-[2-(4-bromophenoxy)acetyl]-piperazin-1-yl)-thiazolo[5,4-d]pyrimidine], the pIC50 in the data set with HSB-2 cells is 5.25; in the data set with HL-60 cells (Homo sapiens, 48 h) it was 5.19.
As for `CC(C)(Oc1ccc(Cl)cc1)C(=O)N1CCN(c2nc(N)nc3sc(-c4cccnc4)nc23)CC1` [Example 274, 1-(4-(5-amino-2-(pyridin-3-yl)thiazolo[5,4-d]pyrimidin-7-yl)piperazin-1-yl)-2-(4-chlorophenoxy)-2-methylpropan-1-one], the negative-log IC50 (pIC50) with LNCaP cells is 4.74.
With `Cc1cccc(NC(=O)N2CCCN(c3nc(N)nc4[nH]c(-c5ccc(F)cc5)nc34)CC2)c1` [Example 422, 4-(2-amino-8-(4-fluorophenyl)-9H-purin-6-yl)-N-m-tolyl-1,4-diazepane-1-carboxamide], the pIC50 was less than 5.00 in the data set with HSB-2 cells (Homo sapiens, HSB2, 48 h) and less than 5.00 in the data set on HL-60 cells (Homo sapiens, 48 h).
`CSc1nc2c(N3CCN(C(=O)COc4ccc(Cl)cc4)CC3)nc(N)nc2[nH]1` [Example 424, 1-(4-(2-amino-8-(methylthio)-9H-purin-6-yl)piperazin-1-yl)-2-(4-chlorophenoxy)ethanone]: the pIC50 in the data set with HSB-2 cells (Homo sapiens, HSB2, 48 h) is 5.34; with HL-60 cells (Homo sapiens, 48 h), 8.00.
Turning to `CN(C(=O)CN1CCN(c2nc(N)nc3oc(CCc4ccc(F)cc4)nc23)CC1)c1ccccc1` [Example 198, 5-amino-2-[2-(4-fluorophenyl)ethyl]-7-(4-[(methylphenyl-carbamoyl)methyl]piperazin-1-yl)-oxazolo[5,4-d]pyrimidine], the pIC50 in the data set on HSB-2 cells (Homo sapiens, HSB2, 48 h) is less than 5.00; with HL-60 cells (Homo sapiens, 48 h), less than 5.00.
As to `Nc1nc(N2CCN(C(=O)COc3ccc(Cl)cc3)CC2)c2nc(C3CC3)oc2n1` [Example 185, 5-amino-2-cyclopropyl-7-[4-(4-chlorophenoxyacetyl)piperazin-1-yl]-oxazolo[5,4-d]pyrimidine], the pIC50 in the data set on HSB-2 cells (Homo sapiens, HSB2, 48 h) is less than 5.00; with HL-60 cells (Homo sapiens, 48 h) it was less than 5.00.
In the case of `Nc1nc(N2CCN(C(=O)COc3ccc(Cl)cc3)CC2)c2nc(CCc3cccs3)sc2n1` [Example 154, 5-amino-2-(2-thiophen-2-ylethyl)-7-(4-[2-(4-chloro-phenoxy)acetyl]piperazin-1-yl)thiazolo[5,4-d]pyrimidine], the pIC50 was 5.39 in the data set on HSB-2 cells (Homo sapiens, HSB2, 48 h) and 5.19 in the data set with HL-60 cells (Homo sapiens, 48 h).
Turning to `Nc1nc(N2CCN(C(=O)COc3ccc(Cl)cc3)CC2)c2nc(-c3ccc[n+]([O-])c3)sc2n1` [Example 121b, 5-amino-7-[4-(4-chlorophenoxyacetyl)piperazin-1-yl]-2-(N-oxopyridine-3-yl)thiazolo[5,4-d]pyrimidine], the pIC50 is 5.21 in the data set on HSB-2 cells and 5.31 in the data set on HL-60 cells.
For the compound `COc1cccc(-c2nc3c(N4CCN(C(=O)COc5ccc(Cl)cc5)CC4)nc(N)nc3s2)c1` [Example 124, 5-amino-7-[4-(4-chlorophenoxyacetyl)piperazin-1-yl]-2-(3-methoxyphenyl)thiazolo[5,4-d]pyrimidine], the pIC50 in the data set with HSB-2 cells (Homo sapiens, HSB2, 48 h) is 5.64; with HL-60 cells (Homo sapiens, 48 h), 6.02.
`Nc1nc(N2CCN(C(=O)COc3ccc(Cl)cc3)CC2)c2nc(SCc3ccccc3)[nH]c2n1` [Example 426, 1-(4-(2-amino-8-(benzylthio)-9H-purin-6-yl)piperazin-1-yl)-2-(4-chlorophenoxy)ethanone]: the pIC50 in the data set with HSB-2 cells (Homo sapiens, HSB2, 48 h) is less than 5.00; with HL-60 cells (Homo sapiens, 48 h) it was less than 5.00.
For `COc1ccc(OCC(=O)N2CCN(c3nc(N)nc4sc(-c5ccccc5)cc34)CC2)cc1` [Example 369, 1-(4-(2-amino-6-phenylthieno[2,3-d]pyrimidin-4-yl)piperazin-1-yl)-2-(4-methoxyphenoxy)ethanone], the pIC50 in the data set on HSB-2 cells (Homo sapiens, HSB2, 48 h) was 5.23; with HL-60 cells (Homo sapiens, 48 h), 5.22.
Regarding `N#Cc1ccc(NC(=O)N2CCN(c3nc(N)nc4sc(-c5ccc(F)cc5)nc34)CC2)cc1` [Example 216, 4-(5-amino-2-(4-fluorophenyl)thiazolo[5,4-d]pyrimidin-7-yl)-N-(4-cyanophenyl)piperazine-1-carboxamide], the pIC50 with HSB-2 cells (Homo sapiens, HSB2, 48 h) was 5.31; with HL-60 cells (Homo sapiens, 48 h), 5.19.
As to `Nc1nc(N2CCN(C(=O)COc3ccc(Cl)cc3)CC2)c2nc(-c3cccc(Cl)c3)[nH]c2n1` [Example 393, 1-(4-(2-amino-8-(3-chlorophenyl)-9H-purin-6-yl)piperazin-1-yl)-2-(4-chlorophenoxy)ethanone], the pIC50 was 5.86 in the data set on HSB-2 cells (Homo sapiens, HSB2, 48 h) and 5.04 with HL-60 cells (Homo sapiens, 48 h).
